Source: patent US9012403B2, “Peptides as active agents to stabilize biological barriers” (XiberScience GmbH, priority 2010, dated 2015)
Marks after values point to notes of the source that are not given here.

Key:
[1] = test system: GTP-bound RhoA; test: GTP-associated active RhoA in ECV304 membrane fraction (western blot); assay type: cell-based
Protocol: (§1) To measure the GTP-associated active RhoA, the following cell lines were used: Caco-2, ECV304 and HpMec. All cells were grown at standard conditions (37° C., 5% CO2 and 95% rH). 4 h before the experiment, cells were starved by serum withdrawal. To induce GEF-activity, cells were stimulated with thrombin, LPS or PMA for the indicated time in presence or absence of 50 μg/ml XIB1-a or XIB1-b. After stimulation, membrane fractions were prepared by using the commercial available “Compartemental Protein Extraction Kit” from Biochain Institutes. Membrane fractions were prepared according to the manufacturer instructions. The membrane fraction was separated on 15% polyacrylamide gel according to standard procedures of gel electrophoresis. The gels were afterwards blotted on a nitrocellulose membrane according to standard procedures of western blotting. GTP-bound RhoA was detected using RhoA-GTP monoclonal antibody from NewEast Inc. in a dilution of 1:5000. Protein bands were analyzed with the Dolphin-1D Gel analysis system (Wealtec).

[2] = test system: GTP-bound RhoA; test: GTP-associated active RhoA in Caco-2 membrane fraction (western blot); assay type: cell-based
Protocol: as §1

[3] = test system: GTP-bound RhoA; test: GTP-associated active RhoA in HpMec membrane fraction (western blot); assay type: cell-based; conditions: HpMec
Protocol: as §1

[4] = test system: Phosphorylated Myosin Light Chain (MLC) and actin stress fibers; test: MLC phosphorylation and actin stress fiber formation in Caco-2 cells (microscopy score); assay type: cell-based
Protocol: To measure MLC phosphorylation and actin stress fiber formation, the following cell lines were used: Caco-2, ECV304 and HpMec. All cells were grown at standard conditions (37° C., 5% CO2 and 95% rH). Culture Medium used: for Caco-2: DMEM+1 mM sodium pyruvate+20% FCS+1% Penicillin Streptomycin; for ECV 304: RPMI 1640+10% FCS+1% Penicillin Streptomycin; and for HpMec: IMDM+25 mM Hepes+10% Human Serum+1% Penicillin Streptomycin+1% L-Glutamine+ECGS/Heparin 2 ml. 4 h before the experiment, cells were starved by serum withdrawal. To induce GEF-activity, cells were stimulated with thrombin, LPS or PMA for the indicated time in presence or absence of 50 μg/ml XIB1-a or XIB1-b. After stimulation, cells were fixed using 4% PFA. Phospho MLC was detected by using the “rabbit anti phosphor-myosin light chain antibody” from Chemicon in a concentration of 3 μl/ml in PBS (Gibco) supplemented with 0.1% Triton X-100. As detection antibody, the Alexa 448 tagged “anti Rabbit IgG Antibody” from Invitrogen was used in a concentration of 0.5 μl/ml in PBS (Gibco) supplemented with 0.1% Triton X-100. Aktin was detected using TRITC-labeled Phalloidin in a concentration of 0.5 μl/ml in PBS (Gibco) supplemented with 0.1% Triton. Stained cells were analyzed by using a Zeiss Laser Scan microscope. Evaluation of the cyto-skeletal activation was performed by 2 independent observers that were blinded to the conditions. Evaluation criteria were set as follows:
Actin: parallel actin bundles absent=0; distinct bundle formation=1; prominent parallel bundles=2; Phospho-MLC: present at cell poles=0; slight co-localization with actin bundles=1; prominent co-localization with actin bundles=2

[5] = test system: Ventilator-Induced Lung Injury (VILI); test: Ventilator-induced lung injury (VILI) after LPS pre-challenge; assay type: in vivo; conditions: mice
Protocol: Experiments were performed with healthy C57BL/6 (aged 8-10 weeks, with weights ranging from 19-25 g). All interventions were performed according to the guide lines of AAALAC. All experiment were approved by the Ethic committee of the University of Amsterdam.
Mice were challenged with LPS (dosage: 50 μg per mouse) (or saline), via intranasal injection 2 h before initiation of mechanical ventilation, to induce lung injury.
XIB1-1b (or random peptide) was administered i.v. 10 min before start of mechanical ventilation (dosage: 4 mg/kg loading dose, followed administration i.v. injections 1 mg/kg/h.
A Y-tube connector with 1.0 mm outer diameter and 0.6 mm inner diameter was surgically inserted into the trachea under general anesthesia. Mice were placed in a supine position and connected to a ventilator. Mice were pressure-controlled ventilated with either an inspiratory pressure of 10 cm H2O (resulting in VT˜7.5 mL/kg; low VT, LVT) or an inspiratory pressure of 18 cm H2O (resulting in VT˜15 mL/kg; high VT, HVT). Positive end-expiratory pressure (PEEP) is set at 2 cm H2O with both MV-strategies. The fraction of inspired oxygen was kept at 0.5 throughout the experiment. The inspiration to expiration ratio was kept at 1:1 throughout the experiment.
BALF was obtained by instilling 3 times 0.5 mL aliquots of saline by a 22-gauge Abbocath-T catheter (Abbott, Sligo, Ireland) into the trachea. Approximately, 1.0 mL of BALF was retrieved per mouse and cell counts were determined using a hemacytometer (Beckman Coulter, Fullerton, Calif.). Subsequently, differential counts were done on cytospin preparations stained with a modified Giemsa stain, Diff-Quick (Dade Behring AG, Düdingen, Switzerland). Supernatant was stored at −80° C.
Total protein levels in BALF are determined using a Bradford Protein Assay Kit (OZ Biosciences, Marseille, France) according to manufacturers' instructions with bovine serum albumin as standard. Mouse IgM was determined by ELISA by using anti-Mouse IgM sensitized 96-strip micro-well plates according to manufacturers' instructions (IMMUNO-TEK kit from ZeptoMetrix).

[6] = ECV 304, LPS 100 μg/ml, 1 min, with or without peptide 50 μg/ml
[7] = ECV 304, LPS 100 μg/ml, 5 min, with or without peptide 50 μg/ml
[8] = ECV 304, Thrombin 1 U/ml, 1 min, with or without peptide 50 μg/ml
[9] = ECV 304, Thrombin 1 U/ml, 5 min, with or without peptide 50 μg/ml
[10] = ECV 304, no stimulus, 1 min, peptide 50 μg/ml
[11] = ECV 304, no stimulus, 5 min, peptide 50 μg/ml
[12] = CaCo-2, PMA 1 μg/ml, 1 min, with or without peptide 50 μg/ml
[13] = CaCo-2, PMA 1 μg/ml, 5 min, with or without peptide 50 μg/ml
[14] = CaCo-2, no stimulus, 1 min, peptide 50 μg/ml
[15] = CaCo-2, no stimulus, 5 min, peptide 50 μg/ml
[16] = Thrombin 1 U/ml, 1 min, with or without peptide 50 μg/ml
[17] = Thrombin 1 U/ml, 5 min, with or without peptide 50 μg/ml
[18] = no stimulus, 1 min, peptide 50 μg/ml
[19] = no stimulus, 5 min, peptide 50 μg/ml
[20] = LPS + high tidal volume ventilation (LPS-HTV), i.v. 4 mg/kg loading, then 1 mg/kg/h
[21] = LPS + low tidal volume ventilation (LPS+LTV), compared to scrambled peptide
[22] = LPS + low tidal volume ventilation (LPS+LTV), protocol caused no pronounced increase

Sequence	GTP-bound RhoA, relative values compared to unstimulated control (Mean) [1, 6]	GTP-bound RhoA, relative values compared to unstimulated control (Mean) [1, 7]	GTP-bound RhoA, relative values compared to unstimulated control (Mean) [1, 8]	GTP-bound RhoA, relative values compared to unstimulated control (Mean) [1, 9]	GTP-bound RhoA, relative values compared to unstimulated control (Mean) [1, 10]	GTP-bound RhoA, relative values compared to unstimulated control (Mean) [1, 11]	GTP-bound RhoA, relative values compared to unstimulated control (Mean) [2, 12]	GTP-bound RhoA, relative values compared to unstimulated control (Mean) [2, 13]	GTP-bound RhoA, relative values compared to unstimulated control (Mean) [2, 14]	GTP-bound RhoA, relative values compared to unstimulated control (Mean) [2, 15]	GTP-bound RhoA, relative values compared to unstimulated control (Mean) [3, 16]	GTP-bound RhoA, relative values compared to unstimulated control (Mean) [3, 17]	GTP-bound RhoA, relative values compared to unstimulated control (Mean) [3, 18]	GTP-bound RhoA, relative values compared to unstimulated control (Mean) [3, 19]	MLC phosphorylation and actin stress fiber formation, evaluation score (Mean) [4, 12]	MLC phosphorylation and actin stress fiber formation, evaluation score (Mean) [4, 13]	MLC phosphorylation and actin stress fiber formation, evaluation score (Mean) [4, 14]	MLC phosphorylation and actin stress fiber formation, evaluation score (Mean) [4, 15]	further results
GRRPGGASGG (/note=“Description of artificial sequence cingulin-derived peptide XIB1-a”)	1.6*	1.7*	2.1*	1.9*	1	1	1.4*	1.3*	1	1	2.1*	1.3*	1	1	1*	2*	0	0	–
GRRPLGGISGG (/note=“Description of artificial sequence cingulin-derived peptide XIB1-b”)	1.6*	1.7*	2.1*	1.9*	1	1	1.4*	1.3*	1	1	2.1*	1.3*	1	1	1*	2*	0	0	IgM content in the BALF [5, 20]: significant decrease; neutrophil count in the BALF [5, 20]: significant decrease; total cell count in the BALF [5, 20]: significant decrease; total protein content in the BALF [5, 20]: significant decrease; neutrophil counts in the BALF [5, 21]: significantly reduced; total cell counts in the BALF [5, 21]: significantly reduced; IgM content in the BALF [5, 22]: no effect; total protein content in the BALF [5, 22]: no effect
